Test results: US20240239790A1, “7-Morpholino-1,6-Naphthyridin-5-yl Derivatives and Pharmaceutical Compositions Thereof Useful as DNA-PK Inhibitor” (adMare Therapeutics Society, priority 2021, published 2024)

Columns and labels:
[1] = target: T1, DNA-PK phosphorylation at Serine 2056 (Homo sapiens, UniProt P78527); assay: Cellular Assay for Inhibition of DNA-PK Phosphorylation at Serine 2056 in FaDu cells (sandwich ELISA, neocarzinostatin); assay type: cell-based; conditions: pSer2056 DNA-PK, neocarzinostatin 1 μg/mL, Table 1
T1 construct: FaDu cells were purchased from ATCC; host or cells: FaDu
Outline: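 pSer2056 and total DNA-PK were measured by sandwich ELISA in BCA-normalised FaDu lysates. Cells had 1 h compound exposure (0.3% DMSO), then 2 h with 1 μg/mL final neocarzinostatin. IC50 was fitted (variable slope) to % inhibition scaled against NCS-stimulated and DMSO-only controls.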

[2] = Hepatocyte Stability Assay, human hepatocytes; assay type: in vitro ADME; conditions: for hepatocyte CLint at 1 uM: both sexes, cryopreserved hepatocytes, pH 7.3, human hepatocytes 0.7 million cells per mL, 1 uM compound; for Hepatocyte Stability Human % rem. 120 min: human hepatocytes
Procedure: Cryopreserved mouse hepatocytes were obtained from a pool of 10 or more male CD-1 mice. Cryopreserved human hepatocytes were obtained from a pool of 10 or more donors of mixed gender. Final hepatocyte density was 0.7 million viable cells per mL and test compound concentration was 1 uM with a maximum of 0.01% DMSO. Cryopreserved hepatocytes were thawed, washed, and resuspended in Krebs-Heinslet buffer (pH 7.3). The reaction was initiated by adding the test compound into cell suspension and incubated for 0, […], 1, 1.5, and 2 h, respectively, at 37° C./5% C02. The reaction was stopped by adding acetonitrile into the incubation mixture. Samples were then mixed, transferred completely to another 96-well plate, and centrifuged. Supernatants were used for HPLC-MS/MS analysis. […] Peak areas corresponding to the test compound were recorded.

DNA-PK = target: T2, DNA-PK (Homo sapiens, UniProt P78527); assay: DNA-PK Assay for Biochemical Enzymatic Inhibition (ADP Glo Kinase assay); conditions: DNA-PK enzyme, Table 1
T2 construct: purchased Invitrogen PR9107A
Outline: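 Human DNA-PK (25 ng) preincubated 15 min with compounds (ten three-fold dilutions) in HEPES pH 7.5, MgCl2, KCl, calf thymus DNA buffer, then substrate 434.4 μM and ATP 64.4 μM (final) for 60 min at room temperature. ADP-Glo luminescence; percent inhibition fitted by four-parameter regression for IC50.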

Row | SMILES | IC50 [1] [nM] | hepatocyte CLint at 1 uM [2] [µL/min/1e6 cells] | Hepatocyte Stability Human % rem. 120 min [2] | IC50 (DNA-PK) [nM]
1 | Cn1c(=O)[nH]c2cnc(N[C@H]3CC[C@@H](Oc4nc(N5CCOCC5)cc5ncccc45)CC3)nc21 [Compound 100, 9-Methyl-2-(((1s,4s)-4-((7-morpholino-1,6-naphthyridin-5-yl)oxy)cyclohexyl)amino)-7,9-dihydro-8H-purin-8-one] | < 100 | > 8.2 | E (% remaining = 0-25%) | < 0.5
2 | Cn1c(=O)n(C)c2nc(N[C@H]3CC[C@@H](Oc4nc(N5CCOCC5)cc5ncccc45)CC3)ncc21 [Compound 101, 7,9-Dimethyl-2-(((1s,4s)-4-((7-morpholino-1,6-naphthyridin-5-yl)oxy)cyclohexyl)amino)-7,9-dihydro-8H-purin-8-one] | < 100 | > 8.2 | F (% remaining = 25-50%) | < 0.5
3 | CN(C)C(=O)Cn1c(=O)n(C)c2nc(N[C@H]3CC[C@@H](Oc4nc(N5CCOCC5)cc5ncccc45)CC3)ncc21 [Compound 102, N,N-Dimethyl-2-(9-methyl-2-(((1s,4s)-4-((7-morpholino-1,6-naphthyridin-5-yl)oxy)cyclohexyl)amino)-8-oxo-8,9-dihydro-7H-purin-7-yl)acetamide] | < 100 | < 8.2 | G (% remaining = 50-75%) | < 0.5
4 | CN(C)C(=O)COc1ccc(C(=O)N[C@H]2CC[C@@H](Oc3nc(N4CCOCC4)cc4ncccc34)CC2)cn1 [Compound 117, 6-(2-(dimethylamino)-2-oxoethoxy)-N-((1s,4s)-4-((7-morpholino-1,6-naphthyridin-5-yl)oxy)cyclohexyl)nicotinamide] | < 100 | < 8.2 | G (% remaining = 50-75%) | 0.5 to 1
5 | CN(C)C(=O)Cn1ccc(C(=O)N[C@H]2CC[C@@H](Oc3nc(N4CCOCC4)cc4ncccc34)CC2)c1 [Compound 141, 1-(2-(dimethylamino)-2-oxoethyl)-N-((1s,4s)-4-((7-morpholino-1,6-naphthyridin-5-yl)oxy)cyclohexyl)-1H-pyrrole-3-carboxamide] | < 100 | < 8.2 | G (% remaining = 50-75%) | < 0.5
6 | CN(C)C(=O)COc1cnc(N[C@H]2CC[C@@H](Oc3nc(N4CCOCC4)cc4ncc(NS(C)(=O)=O)cc34)CC2)nc1 [Compound 182, N,N-dimethyl-2-((2-(((1s,4s)-4-((3-(methylsulfonamido)-7-morpholino-1,6-naphthyridin-5-yl)oxy)cyclohexyl)amino)pyrimidin-5-yl)oxy)acetamide] | 100 to 1000 | < 8.2 | H (% remaining = 75-100%) | < 0.5
7 | O=S(=O)(CF)Nc1cnc2cc(N3CCOCC3)nc(O[C@H]3CC[C@@H](Nc4ncccn4)CC3)c2c1 [Compound 192, 1-fluoro-N-(7-morpholino-5-(((1s,4s)-4-(pyrimidin-2-ylamino)cyclohexyl)oxy)-1,6-naphthyridin-3-yl)methanesulfonamide] | 100 to 1000 | < 8.2 | H (% remaining = 75-100%) | < 0.5
8 | O=S(=O)(CC(F)F)Nc1cnc2cc(N3CCOCC3)nc(O[C@H]3CC[C@@H](Nc4ncccn4)CC3)c2c1 [Compound 193, 2,2-difluoro-N-(7-morpholino-5-(((1s,4s)-4-(pyrimidin-2-ylamino)cyclohexyl)oxy)-1,6-naphthyridin-3-yl)ethane-1-sulfonamide] | 100 to 1000 | < 8.2 | G (% remaining = 50-75%) | 0.5 to 1
9 | CS(=O)(=O)c1cnc2cc(N3CCOCC3)nc(O[C@H]3CC[C@@H](Nc4ncccn4)CC3)c2c1 [Compound 200b, N-((1s,4s)-4-((3-(methylsulfonyl)-7-morpholino-1,6-naphthyridin-5-yl)oxy)cyclohexyl)pyrimidin-2-amine] | 100 to 1000 | < 8.2 | G (% remaining = 50-75%) | < 0.5
10 | CS(=O)(=O)c1cnc2cc(N3CCOCC3)nc(O[C@H]3CC[C@@H](Nc4ncc(OCC(=O)N5CCOCC5)cn4)CC3)c2c1 [Compound 204a, 2-((2-(((1s,4s)-4-((3-(methylsulfonyl)-7-morpholino-1,6-naphthyridin-5-yl)oxy)cyclohexyl)amino)pyrimidin-5-yl)oxy)-1-morpholinoethan-1-one] | 100 to 1000 | < 8.2 | H (% remaining = 75-100%) | 1 to 10
11 | CS(=O)(=O)c1cnc2cc(N3CCOCC3)nc(O[C@H]3CC[C@@H](Nc4ncnc5ccoc45)CC3)c2c1 [Compound 204b, N-((1s,4s)-4-((3-(methylsulfonyl)-7-morpholino-1,6-naphthyridin-5-yl)oxy)cyclohexyl)furo[3,2-d]pyrimidin-4-amine] | < 100 | < 8.2 | G (% remaining = 50-75%) | < 0.5
12 | CS(=O)(=O)c1cnc2cc(N3CCOCC3)nc(O[C@H]3CC[C@@H](NC(=O)c4ncco4)CC3)c2c1 [Compound 204c, N-((1s,4s)-4-((3-(methylsulfonyl)-7-morpholino-1,6-naphthyridin-5-yl)oxy)cyclohexyl)oxazole-2-carboxamide] | < 100 | < 8.2 | H (% remaining = 75-100%) | 1 to 10
